Experiment [1] relates to HeLa cells. Kind of experiment: MTT cell viability assay on HeLa cells. The experiment is classed as cell-based. To be noted: Homo sapiens, 72 h. The method, then:
Elevated expression levels of BAG3 are strongly associated with signaling pathways in various types of malignant cells; consequently, reducing the activity of this co-chaperone inhibits cell proliferation, triggers apoptosis, and induces cell cycle arrest. To assess the activity of compounds 10, 12, and 14, cytotoxicity assays were performed on HeLa cells, which were chosen for their tendency to overexpress BAG3 proteins. MTT assays were conducted by exposing HeLa cells to different concentrations of the compounds (25, 50, and 100 µM) for 72 h. Additionally, 10% DMSO was used as a positive control, while 0.1% DMSO served as a negative control. […] The next step involved the assessment of the cytotoxicity of the most promising candidate, 10, on healthy cells to determine its safety profile. To achieve this, MTT assays were conducted on HaCat cells over 72 h.
Human cervical carcinoma cell lines (HeLa, kindly donated by Prof. Ornella Moltedo, Department of Pharmacy, University of Salerno) and immortalized human keratinocytes (HaCaT) were cultured in a DMEM/high glucose medium. This medium was supplemented with 10% FBS (v/v), 2 mM/L glutamine, 100 U/mL penicillin, and […] streptomycin. The cells were maintained at 37 °C in a humidified atmosphere with 5% CO2. To ensure logarithmic growth, the cells were sub-cultured every 2 days.
Cell viability was assessed by measuring mitochondrial metabolic activity using a colorimetric assay, which involves the reduction of 3-[4,5-dimethylthiazol-2,5-diphenyl-2H-tetrazolium bromide (MTT) to purple formazan. Stock solutions of compounds 10, 12, and 14 (50 mM in DMSO) were stored at −20 °C in the dark and diluted just before being added to the sterile culture medium. Briefly, HeLa cells (3.5 × 10^3 cells/well) were seeded in triplicate in 96-well plates, and after 24 h, to allow for attachment, the cells were treated with various concentrations of the tested compounds (25, 50 and 100 μM), 0.1% (v/v) DMSO as a negative control, and 10% (v/v) DMSO as a positive control for 72 h. Following treatment, 20 μL of MTT (5 mg/mL in PBS) was added to each well, and the cells were incubated for an additional 3 h at 37 °C. The formazan crystals formed were then dissolved in 100 μL of a buffer containing 50% (v/v) N, N-dimethylformamide and 20% SDS (pH 4.5). Absorbance was measured at 570 nm using a Multiskan™ GO Microplate Spectrophotometer (Thermo Fisher Scientific, Waltham, MA, USA,). […] The IC50 values, representing the concentration causing 50% inhibition of cell survival, were calculated and compared to control cells treated with DMSO using GraphPad Prism 8.0 software through nonlinear regression of dose–response inhibition. Only for compound 10 was the IC50 also assessed on HaCaT cells (5.0 × 10^3 cells/well) after 72 h of treatment.
(In general: Tetrazolium dyes change colour on reduction, which living cells bring about.)

Experiment [2] relates to HeLa cells. Kind of experiment: Annexin V-FITC/PI staining apoptosis assay (FACS). The experiment is classed as cell-based, human. Conditions: 72 h. The method, then:
Given BAG3’s well-documented anti-apoptotic role, annexin V-FITC/PI staining was performed to evaluate the effects of compound 10 on cell apoptosis. […] Specifically, at 50 µM, 81.0 ± 3.89% of the cells were apoptotic (p < 0.001 vs. Ctrl); at 30 µM, 70.5 ± 4.56% were apoptotic (p < 0.01 vs. Ctrl); and at 20 µM, 51.5 ± 2.23% were apoptotic (p < 0.05 vs. Ctrl) (Figure 3A,B).
Apoptosis of the cells was assessed using the Annexin V-FITC/PI reagents. Hela cells (20 × 10^3) were seeded into 24-well plates and incubated for 72 h with compound 10. After treatment, the collected cells were resuspended in a 100 μL assay buffer, then 5 μL Annexin V-FITC and 1 μL PI reagents were added following an incubation for 20 min at RT according to the manufacturer’s protocol (Dead Cell Apoptosis Kits with Annexin V for Flow Cytometry, Thermo Fisher Scientific). The cells were analyzed with a Becton Dickinson FACScan flow cytometer using the Cell Quest software, version 4 (Franklin Lakes, NJ, USA). See Supplementary Materials for the data plots (Figure S54).

The next experiment relates to caspase 3. Kind of experiment: Caspase 3 determination by flow cytometry. Conditions: HeLa cells, 72 h, 50, 30 and 20 µM, vs control. The class given is cell-based, human. The method, then:
(§1) Furthermore, we investigated the expressions of caspases, key mediators of programmed cell death, in HeLa cells treated with compound 10 at the same concentrations used in the previous assays. […] To further confirm the pro-apoptotic mechanism induced by compound 10, Western blotting was performed to measure the expression and cleavage of caspase 3 [38, 39].
(§2) HeLa cells were seeded into 6-well plates (2.5 × 10^5 cells/well) and allowed to adhere for 24 h. The cells were then treated for 72 h with compound 10 at concentrations of 20, 30, and 50 µM, as well as with 0.1% DMSO negative (control), to assess caspase 3 and caspase 9 levels. After treatment, cells were collected, washed with PBS, and incubated at 4 °C first with a fixing buffer (containing 1% formaldehyde and 1% FBS in PBS) for 20 min, followed by permeabilization with fix perm solution (fixing buffer containing 0.1% Triton X-100) for 30 min. Next, the cells were incubated with anti-caspase 3 (1:500; SC-7272, Santa Cruz, CA, USA) and anti-caspase 9 (1:50; BS-0049R, Bioss Antibodies, Woburn, MA, USA) antibodies for 30 min at 4 °C. […] Cell fluorescence was then evaluated using a fluorescence-activated cell sorter (FACSscan, Becton Dickinson, Milan, Italy) and analyzed with Cell Quest software (4.0, Becton Dickinson, North Ryde, Australia). […]
A general note: A flow cytometer gives signals particle by particle.

A further experiment has as its system caspase 9. Kind of experiment: Caspase 9 determination by flow cytometry. The experiment is classed as cell-based, human. Conditions: HeLa cells, 72 h, 50, 30 and 20 µM, vs control. The method, then:
as §1, §2

Consider `CC(C)Nc1c(-c2ccccc2Br)nc2ccc(Cl)cn12` [Compound 10, 2-(2-bromophenyl)-6-chloro-N-isopropylimidazo[1,2-a]pyridin-3-amine], for which, in the experiment with HeLa cells [1] (25 µM), the mortality – broadly, the percentage killed – at 25 µM was determined as 50%. Further, the mortality at 100 µM in the experiment with HeLa cells [1] (100 µM) was more than 90%. Besides, it took 25.1 ± 2.67 µM to reach half-maximal inhibition with HeLa cells [1] (seven concentrations (1 to 100 µM)) (IC50). In addition, the apoptotic cells in the experiment on HeLa cells [2] (20 µM) was 51.5 ± 2.23%; in the experiment on HeLa cells [2] (30 µM), 70.5 ± 4.56%; in the experiment with HeLa cells [2] (50 µM), 81.0 ± 3.89%. For the same compound, the “activation of caspase 3” value with caspase 3 is “pronounced, dose-dependent activation”. For the same compound, the “activation of caspase 9” value in the experiment on caspase 9 is recorded as “pronounced, dose-dependent activation”.

These data come from PMC11547576, “Identification of a New Promising BAG3 Modulator Featuring the Imidazopyridine Scaffold” (Molecules, 2024).
